Data published in PubChem BioAssay (NCI).
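How tested: cells in 96-well plates exposed to compound for 48 hours at five concentrations. At the GI50, growth is halved. TGI: concentration producing complete growth inhibition.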

Tests used:
Test in all cases: NCI-60 cell line screen, 48 h
786-0 renal = system: 786-0 renal
A498 renal = system: A498 renal
A549 NSCLC = system: A549 NSCLC
ACHN renal = system: ACHN renal
BT-549 breast = system: BT-549 breast
CAKI-1 renal = system: CAKI-1 renal
CCRF-CEM leukemia = system: CCRF-CEM leukemia
COLO 205 colon = system: COLO 205 colon
DU-145 prostate = system: DU-145 prostate
EKVX NSCLC = system: EKVX NSCLC
HCC-2998 colon = system: HCC-2998 colon
HCT-116 colon = system: HCT-116 colon
HCT-15 colon = system: HCT-15 colon
HL-60(TB) leukemia = system: HL-60(TB) leukemia
HOP-62 NSCLC = system: HOP-62 NSCLC
HOP-92 NSCLC = system: HOP-92 NSCLC
HS 578T breast = system: HS 578T breast
HT29 colon = system: HT29 colon
K-562 leukemia = system: K-562 leukemia
KM12 colon = system: KM12 colon
LOX IMVI melanoma = system: LOX IMVI melanoma
M14 melanoma = system: M14 melanoma
MALME-3M melanoma = system: MALME-3M melanoma
MCF7 breast = system: MCF7 breast
MDA-MB-231 breast = system: MDA-MB-231 breast
MDA-MB-435 = system: MDA-MB-435
MOLT-4 leukemia = system: MOLT-4 leukemia
NCI-H226 lung = system: NCI-H226 lung
NCI-H23 lung = system: NCI-H23 lung
NCI-H460 lung = system: NCI-H460 lung
NCI/ADR-RES ovarian = system: NCI/ADR-RES ovarian
OVCAR-3 ovarian = system: OVCAR-3 ovarian
OVCAR-4 ovarian = system: OVCAR-4 ovarian
OVCAR-5 ovarian = system: OVCAR-5 ovarian
OVCAR-8 ovarian = system: OVCAR-8 ovarian
PC-3 prostate = system: PC-3 prostate
RPMI-8226 leukemia = system: RPMI-8226 leukemia
RXF 393 renal = system: RXF 393 renal
SF-268 CNS = system: SF-268 CNS
SF-295 CNS = system: SF-295 CNS
SF-539 CNS = system: SF-539 CNS
SK-MEL-28 melanoma = system: SK-MEL-28 melanoma
SK-MEL-5 melanoma = system: SK-MEL-5 melanoma
SK-OV-3 ovarian = system: SK-OV-3 ovarian
SN12C renal = system: SN12C renal
SNB-19 CNS = system: SNB-19 CNS
SNB-75 CNS = system: SNB-75 CNS
SR leukemia = system: SR leukemia
SW-620 colon = system: SW-620 colon
T-47D breast = system: T-47D breast
TK-10 renal = system: TK-10 renal
U251 CNS = system: U251 CNS
UACC-257 melanoma = system: UACC-257 melanoma
UACC-62 melanoma = system: UACC-62 melanoma
IGROV1 ovarian = system: IGROV1 ovarian
NCI-H522 lung = system: NCI-H522 lung
SK-MEL-2 melanoma = system: SK-MEL-2 melanoma
UO-31 renal = system: UO-31 renal

SMILES: CCOC(=O)C1=C(C)N(c2ccc(OC)cc2)C2(O)C=CC(=O)C3C(=O)N(c4ccccc4)C(=O)C132 (centres undefined)
- GI50 (786-0 renal): 2.28 µM
- TGI (786-0 renal): 5.34 µM
- GI50 (A498 renal): 11.4 µM
- TGI (A498 renal): 23.5 µM
- GI50 (A549 NSCLC): 3.29 µM
- TGI (A549 NSCLC): 13 µM
- GI50 (ACHN renal): 1.94 µM
- TGI (ACHN renal): 3.93 µM
- GI50 (BT-549 breast): 1.93 µM
- TGI (BT-549 breast): 4.15 µM
- GI50 (CAKI-1 renal): 3.52 µM
- TGI (CAKI-1 renal): 10.1 µM
- GI50 (CCRF-CEM leukemia): 1.67 µM
- TGI (CCRF-CEM leukemia): 13 µM
- GI50 (COLO 205 colon): 1.9 µM
- TGI (COLO 205 colon): 3.83 µM
- GI50 (DU-145 prostate): 1.82 µM
- TGI (DU-145 prostate): 4.7 µM
- GI50 (EKVX NSCLC): 2.71 µM
- TGI (EKVX NSCLC): 12.1 µM
- GI50 (HCC-2998 colon): 1.71 µM
- TGI (HCC-2998 colon): 3.19 µM
- GI50 (HCT-116 colon): 1.17 µM
- TGI (HCT-116 colon): 2.48 µM
- GI50 (HCT-15 colon): 1.95 µM
- TGI (HCT-15 colon): 6.5 µM
- GI50 (HL-60(TB) leukemia): 2.34 µM
- TGI (HL-60(TB) leukemia): 5.82 µM
- GI50 (HOP-62 NSCLC): 3.72 µM
- TGI (HOP-62 NSCLC): 10.3 µM
- GI50 (HOP-92 NSCLC): 2.78 µM
- TGI (HOP-92 NSCLC): 7.97 µM
- GI50 (HS 578T breast): 3.89 µM
- TGI (HS 578T breast): 29.9 µM
- GI50 (HT29 colon): 2.04 µM
- TGI (HT29 colon): 3.75 µM
- GI50 (K-562 leukemia): 2.68 µM
- TGI (K-562 leukemia): > 100 µM
- GI50 (KM12 colon): 1.84 µM
- TGI (KM12 colon): 3.41 µM
- GI50 (LOX IMVI melanoma): 1.55 µM
- TGI (LOX IMVI melanoma): 2.96 µM
- GI50 (M14 melanoma): 2.2 µM
- TGI (M14 melanoma): 5.39 µM
- GI50 (MALME-3M melanoma): 2.04 µM
- TGI (MALME-3M melanoma): 3.83 µM
- GI50 (MCF7 breast): 2.6 µM
- TGI (MCF7 breast): 11.1 µM
- GI50 (MDA-MB-231 breast): 3.19 µM
- TGI (MDA-MB-231 breast): 7.77 µM
- GI50 (MDA-MB-435): 2.72 µM
- TGI (MDA-MB-435): 7.47 µM
- GI50 (MOLT-4 leukemia): 2.42 µM
- TGI (MOLT-4 leukemia): 5.66 µM
- GI50 (NCI-H226 lung): 2.56 µM
- TGI (NCI-H226 lung): 5.18 µM
- GI50 (NCI-H23 lung): 2.34 µM
- TGI (NCI-H23 lung): 6.66 µM
- GI50 (NCI-H460 lung): 2.08 µM
- TGI (NCI-H460 lung): 5.25 µM
- GI50 (NCI/ADR-RES ovarian): 3.57 µM
- TGI (NCI/ADR-RES ovarian): 22.3 µM
- GI50 (OVCAR-3 ovarian): 1.89 µM
- TGI (OVCAR-3 ovarian): 3.66 µM
- GI50 (OVCAR-4 ovarian): 2.21 µM
- TGI (OVCAR-4 ovarian): 5.89 µM
- GI50 (OVCAR-5 ovarian): 4.08 µM
- TGI (OVCAR-5 ovarian): 22.8 µM
- GI50 (OVCAR-8 ovarian): 3.58 µM
- TGI (OVCAR-8 ovarian): 17.3 µM
- GI50 (PC-3 prostate): 2.89 µM
- TGI (PC-3 prostate): 10.1 µM
- GI50 (RPMI-8226 leukemia): 1.95 µM
- TGI (RPMI-8226 leukemia): 5.15 µM
- GI50 (RXF 393 renal): 1.81 µM
- TGI (RXF 393 renal): 3.42 µM
- GI50 (SF-268 CNS): 3.51 µM
- TGI (SF-268 CNS): 18.4 µM
- GI50 (SF-295 CNS): 15.1 µM
- TGI (SF-295 CNS): 28.6 µM
- GI50 (SF-539 CNS): 2.27 µM
- TGI (SF-539 CNS): 5.6 µM
- GI50 (SK-MEL-28 melanoma): 1.86 µM
- TGI (SK-MEL-28 melanoma): 4.29 µM
- GI50 (SK-MEL-5 melanoma): 1.51 µM
- TGI (SK-MEL-5 melanoma): 3.05 µM
- GI50 (SK-OV-3 ovarian): 9.92 µM
- TGI (SK-OV-3 ovarian): 21.7 µM
- GI50 (SN12C renal): 4.09 µM
- TGI (SN12C renal): 12.5 µM
- GI50 (SNB-19 CNS): 4.74 µM
- TGI (SNB-19 CNS): 16.8 µM
- GI50 (SNB-75 CNS): 4.16 µM
- TGI (SNB-75 CNS): 13.8 µM
- GI50 (SR leukemia): 1.59 µM
- TGI (SR leukemia): 5.26 µM
- GI50 (SW-620 colon): 1.88 µM
- TGI (SW-620 colon): 3.83 µM
- GI50 (T-47D breast): 1.79 µM
- TGI (T-47D breast): 6.08 µM
- GI50 (TK-10 renal): 3.48 µM
- TGI (TK-10 renal): 9.05 µM
- GI50 (U251 CNS): 2.14 µM
- TGI (U251 CNS): 5.21 µM
- GI50 (UACC-257 melanoma): 2.78 µM
- TGI (UACC-257 melanoma): 11 µM
- GI50 (UACC-62 melanoma): 2.41 µM
- TGI (UACC-62 melanoma): 5.47 µM

SMILES: Oc1ccc(N=Cc2ccc(C=Nc3ccc(O)cc3)cc2)cc1
- TGI (786-0 renal): 31.4 µM
- TGI (A498 renal): 94.2 µM
- TGI (A549 NSCLC): 38.4 µM
- TGI (ACHN renal): 26 µM
- TGI (BT-549 breast): 33.8 µM
- TGI (CAKI-1 renal): 35.1 µM
- TGI (CCRF-CEM leukemia): 30.7 µM
- TGI (COLO 205 colon): 39.2 µM
- TGI (DU-145 prostate): 32.4 µM
- TGI (EKVX NSCLC): 83.6 µM
- TGI (HCT-116 colon): 36.8 µM
- TGI (HCT-15 colon): 29.1 µM
- TGI (HOP-62 NSCLC): 37.1 µM
- TGI (HOP-92 NSCLC): 62.7 µM
- TGI (HS 578T breast): 60.1 µM
- TGI (HT29 colon): 89.4 µM
- TGI (IGROV1 ovarian): 39 µM
- TGI (K-562 leukemia): 40.4 µM
- TGI (KM12 colon): 33.3 µM
- TGI (LOX IMVI melanoma): 41.4 µM
- TGI (M14 melanoma): 34.5 µM
- TGI (MALME-3M melanoma): 34.4 µM
- TGI (MCF7 breast): > 100 µM
- TGI (MDA-MB-231 breast): 27.7 µM
- TGI (MDA-MB-435): 32.7 µM
- TGI (MOLT-4 leukemia): 20 µM
- TGI (NCI-H226 lung): 29.5 µM
- TGI (NCI-H23 lung): 34.8 µM
- TGI (NCI-H460 lung): 72.7 µM
- TGI (NCI-H522 lung): 59.9 µM
- TGI (NCI/ADR-RES ovarian): 34.2 µM
- TGI (OVCAR-3 ovarian): 32.6 µM
- TGI (OVCAR-4 ovarian): 29.6 µM
- TGI (OVCAR-5 ovarian): 38.7 µM
- TGI (OVCAR-8 ovarian): 29.3 µM
- TGI (PC-3 prostate): 33 µM
- TGI (RPMI-8226 leukemia): 81.6 µM
- TGI (RXF 393 renal): 34.9 µM
- TGI (SF-268 CNS): 30.8 µM
- TGI (SF-295 CNS): 32.3 µM
- TGI (SF-539 CNS): 28.6 µM
- TGI (SK-MEL-2 melanoma): 49.9 µM
- TGI (SK-MEL-28 melanoma): 37.3 µM
- TGI (SK-MEL-5 melanoma): 29.8 µM
- TGI (SK-OV-3 ovarian): 32.4 µM
- TGI (SN12C renal): 28.5 µM
- TGI (SNB-19 CNS): 31.6 µM
- TGI (SNB-75 CNS): 41.5 µM
- TGI (SR leukemia): 25.9 µM
- TGI (SW-620 colon): 45.8 µM
- TGI (T-47D breast): > 100 µM
- TGI (TK-10 renal): 34 µM
- TGI (U251 CNS): 27.6 µM
- TGI (UACC-257 melanoma): 32.4 µM
- TGI (UACC-62 melanoma): 25.5 µM
- TGI (UO-31 renal): 34 µM
